Measurements reported in article PMC8154581, “Discovery of Novel Thiophene-arylamide Derivatives as DprE1 Inhibitors with Potent Antimycobacterial Activities” (Journal of Medicinal Chemistry, 2021).
In brackets after ≈: the same amount, converted by molar mass. Several values for one entry are separate records, joined by “and”; a condition that tells them apart may be missing. Equal values may be shown once. Read-outs that look alike come from different tables or passages of the source.

What was measured:
M. tuberculosis H37Rv [1] = assay: MIC against replicating M. tuberculosis H37Rv, microplate Alamar blue assay (MABA); format: cell-based
Vero cells = assay: Cytotoxicity assay in Vero cells (MTT); format: cell-based; conditions: for IC50: Chlorocebus sabaeus, Vero cells, 48 h, read-out: IC50 (Vero)
Mt-DprE1 = Mt-DprE1 (Mycobacterium tuberculosis, UniProt P9WJF1); format: biochemical, M. tuberculosis
Mt-DprE1, sequence (P9WJF1 whole entry, looked up): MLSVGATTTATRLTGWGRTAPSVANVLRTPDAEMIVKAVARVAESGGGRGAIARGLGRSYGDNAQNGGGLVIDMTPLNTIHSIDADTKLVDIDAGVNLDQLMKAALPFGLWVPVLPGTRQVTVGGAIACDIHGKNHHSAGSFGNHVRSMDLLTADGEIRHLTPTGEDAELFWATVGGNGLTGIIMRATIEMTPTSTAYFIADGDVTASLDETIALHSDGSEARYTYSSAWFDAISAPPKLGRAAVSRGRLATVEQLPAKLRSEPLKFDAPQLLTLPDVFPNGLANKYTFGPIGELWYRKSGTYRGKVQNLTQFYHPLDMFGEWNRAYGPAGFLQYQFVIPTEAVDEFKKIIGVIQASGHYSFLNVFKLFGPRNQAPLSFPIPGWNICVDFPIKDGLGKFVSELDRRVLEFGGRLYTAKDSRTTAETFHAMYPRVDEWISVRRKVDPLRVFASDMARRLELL

[2] = tested on: M. tuberculosis (H37Rv) in infected mouse J774A.1 macrophages; format: cell-based
[3] = Cytotoxicity assay in HepG2 cells (MTT); conditions: human
[4] = Hepatocyte stability assay, mouse; conditions: male, mouse hepatocytes
[5] = Hepatocyte stability assay, human; conditions: human hepatocytes
hERG K+ channel = hERG K+ channel (Homo sapiens, UniProt Q12809); assay: Inhibition of the hERG K+ channel, electrophysiology
hERG K+ channel, sequence (Q12809 whole entry): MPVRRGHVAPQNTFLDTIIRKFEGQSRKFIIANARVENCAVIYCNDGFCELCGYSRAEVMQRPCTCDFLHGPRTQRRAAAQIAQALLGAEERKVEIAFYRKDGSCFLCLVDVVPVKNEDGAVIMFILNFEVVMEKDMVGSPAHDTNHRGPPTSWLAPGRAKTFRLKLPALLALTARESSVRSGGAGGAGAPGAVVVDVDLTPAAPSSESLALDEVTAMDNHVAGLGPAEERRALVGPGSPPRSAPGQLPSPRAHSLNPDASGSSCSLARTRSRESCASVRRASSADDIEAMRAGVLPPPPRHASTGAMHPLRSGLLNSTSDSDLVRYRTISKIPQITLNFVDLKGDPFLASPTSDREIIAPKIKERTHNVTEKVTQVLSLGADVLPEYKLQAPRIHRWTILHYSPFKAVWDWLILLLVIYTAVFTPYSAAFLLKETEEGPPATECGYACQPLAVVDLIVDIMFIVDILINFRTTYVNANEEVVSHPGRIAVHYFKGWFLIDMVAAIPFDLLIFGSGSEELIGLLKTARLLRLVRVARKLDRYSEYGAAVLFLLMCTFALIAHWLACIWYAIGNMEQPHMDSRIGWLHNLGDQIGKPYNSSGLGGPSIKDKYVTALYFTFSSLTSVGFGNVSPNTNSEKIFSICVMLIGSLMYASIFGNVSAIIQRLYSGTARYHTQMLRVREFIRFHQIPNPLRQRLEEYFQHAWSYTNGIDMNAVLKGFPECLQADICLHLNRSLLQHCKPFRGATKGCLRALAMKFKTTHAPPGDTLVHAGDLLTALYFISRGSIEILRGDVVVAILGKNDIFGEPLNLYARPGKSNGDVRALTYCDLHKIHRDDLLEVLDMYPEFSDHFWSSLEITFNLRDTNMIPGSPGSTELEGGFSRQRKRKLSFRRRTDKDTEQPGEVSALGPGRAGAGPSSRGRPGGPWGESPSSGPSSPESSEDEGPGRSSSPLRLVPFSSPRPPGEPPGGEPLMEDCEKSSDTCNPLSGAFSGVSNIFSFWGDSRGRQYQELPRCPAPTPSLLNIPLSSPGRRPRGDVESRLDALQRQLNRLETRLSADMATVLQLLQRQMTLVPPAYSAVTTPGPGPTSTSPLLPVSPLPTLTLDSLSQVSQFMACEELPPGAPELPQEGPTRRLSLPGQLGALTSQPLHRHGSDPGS

M. tuberculosis H37Rv [6] = assay: In vivo efficacy in acute TB infection model in Balb/c mice; conditions: for log10 CFU/lung: oral, three weeks, INH 25 mg/kg
[7] = Mycobacterium tuberculosis, H37RV, against M. tuberculosis H37Rv, Tables 1-3, read-out: MIC
[8] = Mycobacterium tuberculosis, H37RV, supplementary CSV, same values as Tables 1-3, read-out: Minimal inhibit concentration
[9] = Mycobacterium tuberculosis, H37RV, Table 4, read-out: MIC H37Rv

Compound	melting point [°C]	MIC (M. tuberculosis H37Rv [1]; [7]) [µg/mL]	MIC (M. tuberculosis H37Rv [1]; [8]) [µg/mL]	SI (Vero cells)	IC50 (Vero cells) [µg/mL]	also measured
CCOC(=O)NC(=O)c1ccsc1NC(=O)c1ccc(C(=O)NC2CCCCC2)cc1 [Compound 23e, Ethyl (2-(4-(Cyclohexylcarbamoyl)benzamido)thiophene-3-carbonyl)carbamate]	> 250	0.5 (≈ 1.13 µM)	0.5 (≈ 1.13 µM)	>128	> 64	
CCOC(=O)NC(=O)c1ccsc1NC(=O)c1ccc(C(=O)NC2CCC(C)(C)CC2)cc1 [Compound 23f, Ethyl (2-(4-((4,4-Dimethylcyclohexyl)carbamoyl)benzamido)thiophene-3-carbonyl)carbamate]	> 250	0.94 (≈ 1.99 µM)	0.94 (≈ 1.99 µM)	>68	> 64	
CCOC(=O)NC(=O)c1ccsc1NC(=O)c1ccc(C(=O)Nc2ccccc2)cc1 [Compound 23g, Ethyl (2-(4-(Phenylcarbamoyl)benzamido)thiophene-3-carbonyl)carbamate]	> 250	0.12 (≈ 0.274 µM)	0.12 (≈ 0.274 µM)	191	23 (≈ 52.5 µM)	
CCOC(=O)NC(=O)c1ccsc1NC(=O)c1ccc(C(=O)N2CCC2)cc1 [Compound 23h, Ethyl (2-(4-(Azetidine-1-carbonyl)benzamido)thiophene-3-carbonyl)carbamate]	182 to 183	0.84 (≈ 2.09 µM)	0.84 (≈ 2.09 µM)	>76	> 64	
CCOC(=O)NC(=O)c1ccsc1NC(=O)c1ccc(C(=O)N2CCCCC2)cc1 [Compound 23j, Ethyl (2-(4-(Piperidine-1-carbonyl)benzamido)thiophene-3-carbonyl)carbamate]		0.02 (≈ 0.0466 µM)	0.02 (≈ 0.0466 µM)		> 64	IC50 DprE1 (Mt-DprE1): 0.3 ± 0.1 µg/mL (≈ 0.698 µM); log10 CFU/macrophages [2]: 4.45 ± 0.03 log10 CFU and 4.54 ± 0.01 log10 CFU; Δlog10 CFU [2]: 1.07 log10 CFU and 0.98 log10 CFU; IC50 at 48 h [3]: > 64 µg/mL; half-life at 1 µM [4]: 56.4 min; remaining at 0.5 h, 1 µM [4]: 69.1%; half-life at 1 µM [5]: 50.8 min; remaining at 0.5 h, 1 µM [5]: 66.4%; IC50 (hERG K+ channel): 23.7 µM
CCOC(=O)NC(=O)c1ccsc1NC(=O)c1ccc(C(=O)N2CCC(OC)CC2)cc1 [Compound 23m, Ethyl (2-(4-(4-Methoxypiperidine-1-carbonyl)benzamido)thiophene-3-carbonyl)carbamate]	160 to 161	0.12 (≈ 0.261 µM)	0.12 (≈ 0.261 µM)	>533	> 64	
CCOC(=O)NC(=O)c1ccsc1NC(=O)c1ccc(C(=O)N2CCSCC2)cc1 [Compound 23p, Ethyl (2-(4-(Thiomorpholine-4-carbonyl)benzamido)thiophene-3-carbonyl)carbamate]	178 to 179	0.33 (≈ 0.737 µM)	0.33 (≈ 0.737 µM)	159	52.3 (≈ 117 µM)	
CCOC(=O)NC(=O)c1ccsc1NC(=O)c1ccc(C(=O)N2CCCCC2)cc1Cl [Compound 24c, Ethyl (2-(2-Chloro-4-(piperidine-1-carbonyl)benzamido)thiophene-3-carbonyl)carbamate]	59 to 60	0.45 (≈ 0.97 µM)	0.45 (≈ 0.97 µM)	>142	> 64	
CCOC(=O)NC(=O)c1ccsc1NC(=O)c1ccc(C(=O)N2CCCCC2)cc1Br [Compound 24d, Ethyl (2-(2-Bromo-4-(piperidine-1-carbonyl)benzamido)thiophene-3-carbonyl)carbamate]	144 to 145	0.49 (≈ 0.964 µM)	0.49 (≈ 0.964 µM)	>131	> 64	
CCOC(=O)NC(=O)c1ccsc1NC(=O)c1ccc(C(=O)N2CCCCC2)cc1[N+](=O)[O-] [Compound 24e, Ethyl (2-(2-Nitro-4-(piperidine-1-carbonyl)benzamido)thiophene-3-carbonyl)carbamate]	113 to 114	1.86 (≈ 3.92 µM)	1.86 (≈ 3.92 µM)	>34	> 64	
CCOC(=O)NC(=O)c1ccsc1NC(=O)c1coc(C(=O)N2CCCCC2)c1 [Compound 24k, Ethyl (2-(5-(Piperidine-1-carbonyl)furan-3-carboxamido)thiophene-3-carbonyl)carbamate]	157 to 158	0.37 (≈ 0.882 µM)	0.37 (≈ 0.882 µM)	>173	> 64	MIC (M. tuberculosis H37Rv [1]; [9]): 0.15 µg/mL (≈ 0.358 µM)
COC(=O)NC(=O)c1ccsc1NC(=O)c1ccc(C(=O)N2CCCCC2)c(F)c1 [Compound 25b, Methyl (2-(3-Fluoro-4-(piperidine-1-carbonyl)benzamido)thiophene-3-carbonyl)carbamate]		0.03 (≈ 0.0692 µM)	0.03 (≈ 0.0692 µM)		> 64	IC50 DprE1 (Mt-DprE1): 0.4 ± 0.1 µg/mL (≈ 0.923 µM); log10 CFU/macrophages [2]: 4.59 ± 0.05 log10 CFU and 4.75 ± 0.21 log10 CFU; Δlog10 CFU [2]: 0.93 log10 CFU and 0.77 log10 CFU; MIC H37Rv (M. tuberculosis H37Rv [1]; H37Rv, Table 4): 0.030 µg/mL (≈ 0.0692 µM); MIC (M. tuberculosis H37Rv [1]; [9]): 0.02 to 0.12 µg/mL (≈ 0.0461 to 0.277 µM); IC50 at 48 h [3]: > 64 µg/mL; half-life at 1 µM [4]: 12.5 min; remaining at 0.5 h, 1 µM [4]: 19%; half-life at 1 µM [5]: 32.6 min; remaining at 0.5 h, 1 µM [5]: 52.8%; IC50 (hERG K+ channel): > 30 µM
Cc1ccnc(NC(=O)c2ccsc2NC(=O)c2ccc(C(=O)N3CCCCC3)cc2)n1 [Compound 25j, N-(4-Methylpyrimidin-2-yl)-2-(4-(piperidine-1-carbonyl)benzamido)thiophene-3-carboxamide]	177 to 178		1.94 (≈ 4.32 µM)		51.9 (≈ 115 µM)	MIC (M. tuberculosis H37Rv [1]; Mycobacterium tuberculosis, H37RV, against M. tuberculosis H37Rv, Tables 1-3): 1.94 µg/mL (≈ 4.32 µM)
Cc1ccnc(NC(=O)c2ccsc2NC(=O)c2ccc(C(=O)N3CCCCC3)c(F)c2)n1 [Compound 25k, 2-(3-Fluoro-4-(piperidine-1-carbonyl)benzamido)-N-(4-methylpyrimidin-2-yl)thiophene-3-carboxamide]	148 to 150	0.47 (≈ 1.01 µM)	0.47 (≈ 1.01 µM)	>136	> 64	
O=C(Nc1sccc1C(=O)Nc1nccc(C(F)(F)F)n1)c1ccc(C(=O)N2CCCCC2)cc1 [Compound 25l, 2-(4-(Piperidine-1-carbonyl)benzamido)-N-(4-(trifluoromethyl)pyrimidin-2-yl)thiophene-3-carboxamide]	182 to 183	0.2 (≈ 0.397 µM)	0.2 (≈ 0.397 µM)		> 64	IC50 DprE1 (Mt-DprE1): 0.4 ± 0.1 µg/mL (≈ 0.794 µM); log10 CFU/macrophages [2]: 4.54 ± 0.00 log10 CFU and 4.59 ± 0.03 log10 CFU; Δlog10 CFU [2]: 0.98 log10 CFU and 0.93 log10 CFU; MIC (M. tuberculosis H37Rv [1]; [9]): 0.2 µg/mL (≈ 0.397 µM); MIC (M. tuberculosis H37Rv [1]; against M. tuberculosis H37Rv, Tables 1-3): 0.20 µg/mL (≈ 0.397 µM)
NNC(=O)c1ccncc1 [INH, isoniazid, reference compound]						MIC (M. tuberculosis H37Rv [1]; [9]): 0.019 µg/mL (≈ 0.139 µM); log10 CFU/lung (M. tuberculosis H37Rv [6]; first column (batch with 25a; untreated 6.44), 25a 100 mg/kg): 1.76 ± 0.49 log10 CFU; Δlog10 CFU (M. tuberculosis H37Rv [6]; in vivo): 4.68/5.17 log10 CFU; log10 CFU/lung (M. tuberculosis H37Rv [6]; second column (another batch, with TCA1; untreated 7.10), TCA1 100 mg/kg): 1.93 ± 0.21 log10 CFU
